The structures appear in SMILES notation. pIC50: −log10 of the molar value.

A word on the pIC50: it is −log10 of the IC50, conventionally taken in molar units. A lower pIC50 goes with a large IC50. Usually Emax stands for the greatest response seen or fitted, relative to the assay's reference. The AUC(0-t) is exposure summed from dosing to a finite time, without extrapolation to infinity. A higher AUC(0-t) goes with more exposure. Broadly, the Cmax is the highest concentration seen after dosing. As usually defined, the half-life is the time in which the quantity being followed falls by half. Read a high half-life as slow decline. As usually defined, the bioavailability is the share of a dose that reaches the circulation, judged against a reference dose that is usually intravenous.

In data set [1] the target is T1, RORγt (Homo sapiens, UniProt P51449).
T1 sequence (P51449 269-508 limits assumed): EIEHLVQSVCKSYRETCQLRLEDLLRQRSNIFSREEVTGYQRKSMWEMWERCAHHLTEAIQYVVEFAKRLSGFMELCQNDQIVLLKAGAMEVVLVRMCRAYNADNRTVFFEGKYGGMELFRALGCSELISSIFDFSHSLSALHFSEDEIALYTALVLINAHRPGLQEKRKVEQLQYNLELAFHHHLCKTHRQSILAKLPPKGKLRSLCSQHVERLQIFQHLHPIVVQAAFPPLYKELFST
The data set can be described thus: In vitro luciferase reporter assay of RORγt inhibition (GAL4-RORγ-LBD in HEK293T). The settings on record: for pIC50: IC50, RORγt luciferase reporter gene, HEK293T; for Emax % / Emax: relative maximum inhibition rate relative to AZD-0284 at 10 μM; for Emax: HEK-293T. (A reporter such as luciferase makes a cellular process visible.)
Description: The RORγ-LBD coding sequence was inserted into pBIND plasmid (Promega, E1581). The expression vector and a reporter vector (pGL4.35 carrying a stably integrated luciferase reporter gene driven by GAL4 promoter) were co-expressed in HEK293T host cells. When the inhibitor binds to the corresponding chimeric receptor, the chimeric receptor binds to the GAL4 binding site on the reporter gene carrier and inhibits reporter gene expression. The inhibition activity of the compounds on RORγ was determined according to the intensity of the chemiluminescence signal.
2.2 Cell Transfection • a) Balancing the Trans-IT transfection reagent at room temperature; • b) Adding 20 μl of the transfection reagent and 600 μl of Opti-MEM™ medium without contacting the tube wall, mixing uniformly through blowing and pipetting by a pipette gun, and allowing to stand at room temperature for 5 minutes; • c) Adding 10 μg of the plasmid to the transfection reagent (see Step 2.2.b), and allowing to stand at room temperature for 20 minutes; • Plasmids: 5 μg of pBIND-RORγ and 5 μg of pGL4.35 plasmids were respectively added therein; • d) Adding the mixed DNA transfection reagent to a 100 mm cell culture dish (see Step 2.1); • e) Placing the dish in an incubator at 37° C. and 5% CO2 for 5 h. […] Calculation of % Inhibition
[formula] • RLUcmpd: fluorescence value of test compounds • RLUpositive: average value of positive control • RLUvehicle: average value of negative control
IC50s of the compounds were calculated by fitting the % Inhibition and the logarithm values of the compound concentration using Graphad 8.0.

The nature of data set [2]: Pharmacokinetic (PK) assay in mice. The format is in vivo, C57BL/6 mice. Here is the method:
The PK of each compound was determined as follows: 6 C57BL/6 mice (obtained from Shanghai Lingchang Biotechnology Co., Ltd.) were divided into two groups with 3 in each group. One group was administered intravenously at a dose of 1 mg/kg in the vehicle of 5% DMSO/95% (20% Captisol); the other group was administered by oral gavage at a dose of 5 mg/kg in the vehicle of 0.5% CMC-Na/0.5% Tween 80. Blood samples were collected from saphenous vein of lower leg in each group at 0, 0.083, 0.25, 0.5, 1, 2, 4, 6, 8 and 24 h after administration. Approximately 40 μL of the blood samples were collected into anticoagulant tubes containing EDTA-K2 Immediately after collection, the tubes were inverted at least 5 times to ensure uniform mixing, and then placed on ice. The blood samples collected at each time point were centrifuged at 4° C., 8000 rpm for 5 minutes to obtain plasma. Another 1.5 mL centrifuge tube was marked with the compound name, animal number, and time point, and the plasma was transferred to this tube. The plasma was stored at −80° C. until analysis.
Compound concentrations in the plasma were determined by UPLC-MS/MS method, and the pharmacokinetic parameters were calculated from the obtained data by Phoenix WinNolin 6.4 pharmacokinetic software.

Setting [3] is: C57BL/6, mouse, plasma, IV, 1 mg/kg.
Where [4] appears, read: C57BL/6, mouse, plasma, Po, 5 mg/kg.

For `CCS(=O)(=O)c1ccc2c(c1)CCN(C(C)=O)C2C(=O)Nc1ccc(C(O)(C(F)(F)F)C(F)(F)F)cc1` (single isomer, unassigned) [Example 3, (S)-2-acetyl-6-(ethylsulfonyl)-N-(4-(1,1,1,3,3,3-hexafluoro-2-hydroxypropan-2-yl)phenyl)-1,2,3,4-tetrahydroisoquinoline-1-carboxamide or (R)-2-acetyl-6-(ethylsulfonyl)-N-(4-(1,1,1,3,3,3-hexafluoro-2-hydroxypropan-2-yl)phenyl)-1,2,3,4-tetrahydrosoquinoline-1-carboxamide], in data set [1], the pIC50 is 6.17 and the Emax % worked out at 111.3%.
In data set [1], `CCS(=O)(=O)c1ccc2c(c1)CCN(C(C)=O)C2C(=O)Nc1ccc(C(F)(C(F)(F)F)C(F)(F)F)cc1` (single isomer, unassigned) [Example 8, (R)-2-acetyl-6-(ethylsulfonyl)-N-(4-(perfluoropropan-2-yl)phenyl)-1,2,3,4-tetrahydroisoquinoline-1-carboxamide or (S)-2-acetyl-6-(ethylsulfonyl)-N-(4-(perfluoropropan-2-yl)phenyl)-1,2,3,4-tetrahydroisoquinoline-1-carboxamide] showed an Emax of 99.2% and a pIC50 of 8.42.
`CCS(=O)(=O)c1ccc2c(c1)CCN(C(C)=O)C2C(=O)Nc1ccc(C(F)(C(F)(F)F)C(F)(F)F)cc1` (single isomer, unassigned) [Example 9, (S)-2-acetyl-6-(ethylsulfonyl)-N-(4-(perfluoropropan-2-yl)phenyl)-1,2,3,4-tetrahydroisoquinoline-1-carboxamide or (R)-2-acetyl-6-(ethylsulfonyl)-N-(4-(perfluoropropan-2-yl)phenyl)-1,2,3,4-tetrahydroisoquinoline-1-carboxamide]: in data set [1], the pIC50 was 6.21 and the Emax % stood at 107.1%.
Regarding `CC(=O)N1Cc2cc(S(C)(=O)=O)ccc2[C@@H]1C(=O)Nc1ccc(C(O)(C(F)(F)F)C(F)(F)F)cc1` [AZD-0284, reference compound], in data set [2] (setting [3]), the AUC(0-t) was determined as 1180 ng·h/mL, the Cmax amounted to 2480 ng/mL and the half-life was 7.75 h. The Vd in data set [2] (C57BL/6, mouse, plasma, IV, 1 mg/kg, read-out: Vss) came to 6.29 L/kg. Further, the bioavailability in data set [2] (C57BL/6, mouse, plasma, Po 5 mg/kg vs IV 1 mg/kg) was 38%. For the same compound, in data set [2] (setting [4]), the AUC(0-t) turned out to be 2780 ng·h/mL, the Cmax was 264 ng/mL and the half-life was 3.35 h. Further, the CL_obs in data set [2] (IV, 1 mg/kg) is given as 12.6 mL/min/kg.
As to `CCS(=O)(=O)c1ccc2c(c1)CCN(C(=O)CCC(=O)O)C2C(=O)Nc1ccc(C(O)(C(F)(F)F)C(F)(F)F)cc1` (stereo not shown) [Example 4, 4-(6-(Ethylsulfonyl)-1-((4-(1,1,1,3,3,3-hexafluoro-2-hydroxypropan-2-yl)phenyl)carbamoyl)-3,4-dihydroisoquinolin-2(1H)-yl)-4-oxobutanoic acid], in data set [1], the Emax came to 73.8% and the pIC50 is 5.52.
In data set [1], `CCS(=O)(=O)c1ccc2c(c1)CCN(C(C)=O)C2C(=O)Nc1ccc(C(O)(C(F)(F)F)C(F)(F)F)cc1F` (stereo not shown) [Example 10, 2-Acetyl-6-(ethylsulfonyl)-N-(2-fluoro-4-(1,1,1,3,3,3-hexafluoro-2-hydroxypropan-2-yl)phenyl)-1,2,3,4-tetrahydroisoquinoline-1-carboxamide] showed a maximal effect (Emax) of 102% and a pIC50 of 7.39.
In data set [1], `CC(=O)N1CCc2cc(S(C)(=O)=O)ccc2C1C(=O)Nc1ccc(C(O)(C(F)(F)F)C(F)(F)F)cc1F` (stereo not shown) [Example 11, 2-Acetyl-N-(2-fluoro-4-(1,1,1,3,3,3-hexafluoro-2-hydroxypropan-2-yl)phenyl)-6-(methylsulfonyl)-1,2,3,4-tetrahydroisoquinoline-1-carboxamide] gave an Emax of 104% and a pIC50 of 7.04.
Regarding `CCS(=O)(=O)c1ccc2c(c1)CCN(C(C)=O)C2C(=O)Nc1ccc(OC(F)(F)F)cc1` (stereo not shown) [Example 12, 2-Acetyl-6-(ethylsulfonyl)-N-(4-(trifluoromethoxy)phenyl)-1,2,3,4-tetrahydroisoquinoline-1-carboxamide], in data set [1], the Emax is 95.7% and the pIC50 is 6.54.
With `CCC(=O)N1CCc2cc(S(=O)(=O)CC)ccc2C1C(=O)Nc1ccc(C(O)(C(F)(F)F)C(F)(F)F)cc1` (stereo not shown) [Example 13, 6-(Ethylsulfonyl)-N-(4-(1,1,1,3,3,3-hexafluoro-2-hydroxypropan-2-yl)phenyl)-2-propionyl-1,2,3,4-tetrahydroisoquinoline-1-carboxamide], in data set [1], the Emax was 101% and the pIC50 is 6.81.
In data set [1], `CCS(=O)(=O)c1ccc2c(c1)CCN(C(=O)C1CC1)C2C(=O)Nc1ccc(C(O)(C(F)(F)F)C(F)(F)F)cc1` (stereo not shown) [Example 14, 2-(Cyclopropanecarbonyl)-6-(ethylsulfonyl)-N-(4-(1,1,1,3,3,3-hexafluoro-2-hydroxypropan-2-yl)phenyl)-1,2,3,4-tetrahydroisoquinoline-1-carboxamide] gave an Emax of 98.8% and a pIC50 of 7.08.
Regarding `CC(=O)N1CCc2cc(S(C)(=O)=O)ccc2C1C(=O)Nc1cc(Cl)c(C2=CCOCC2)c(Cl)c1` (stereo not shown) [Example 17, 2-Acetyl-N-(3,5-dichloro-4-(3,6-dihydro-2H-pyran-4-yl)phenyl)-6-(methylsulfonyl)-1,2,3,4-tetrahydroisoquinoline-1-carboxamide], in data set [1], the Emax was 95.9% and the pIC50 is 7.17.
In data set [1], `CCS(=O)(=O)c1ccc2c(c1)CCN(C(C)=O)C2C(=O)Nc1cc(Cl)c(C2=CCOCC2)c(Cl)c1` (stereo not shown) [Example 18, 2-Acetyl-N-(3,5-dichloro-4-(3,6-dihydro-2H-pyran-4-yl)phenyl)-6-(ethylsulfonyl)-1,2,3,4-tetrahydroisoquinoline-1-carboxamide] showed an Emax of 95.8% and a pIC50 of 6.97.
In data set [1], `CCS(=O)(=O)c1ccc2c(c1)CCN(C=O)C2C(=O)Nc1ccc(C(O)(C(F)(F)F)C(F)(F)F)cc1` (stereo not shown) [Example 19, 6-(Ethylsulfonyl)-2-formyl-N-(4-(1,1,1,3,3,3-hexafluoro-2-hydroxypropan-2-yl)phenyl)-1,2,3,4-tetrahydroisoquinoline-1-carboxamide] showed an Emax of 101% and a pIC50 of 7.83.
In data set [1], `CC(=O)N1CCc2cc(S(=O)(=O)CC3CC3)ccc2C1C(=O)Nc1ccc(C(O)(C(F)(F)F)C(F)(F)F)cc1` (stereo not shown) [Example 21, 2-Acetyl-6-((cyclopropylmethyl)sulfonyl)-N-(4-(1,1,1,3,3,3-hexafluoro-2-hydroxypropan-2-yl)phenyl)-1,2,3,4-tetrahydroisoquinoline-1-carboxamide] gave an Emax of 102% and a negative-log IC50 (pIC50) of 7.90.
The corresponding values for `CNS(=O)(=O)c1ccc2c(c1)CCN(C(C)=O)C2C(=O)Nc1ccc(C(O)(C(F)(F)F)C(F)(F)F)cc1` (stereo not shown) [Example 22, 2-Acetyl-N-(4-(1,1,1,3,3,3-hexafluoro-2-hydroxypropan-2-yl)phenyl)-6-(N-methylsulfamoyl)-1,2,3,4-tetrahydroisoquinoline-1-carboxamide] are 102% and 7.75.

(Values after US12540117B2, “Aniline compound used as RORγ regulator” (SHANGHAI LITEDD CO., LTD., priority 2020, dated 2026).)
